Each structure is given as a SMILES string. In brackets after ≈: the same amount, converted by molar mass.

For one data set, the system named is A549. Put plainly: Cytotoxicity against human A549 cells. Format: functional, cell-based.
The test system of another data set is C6. Put plainly: Cytotoxicity against rat C6 cells. Format: functional, cell-based.
Another data set has as its system MCF7. Put plainly: Cytotoxicity against human MCF7 cells. The format is functional, cell-based.
The next data set has as its system SMMC-7721. Nature of the data set: Cytotoxicity against human SMMC7721 cells. The format is functional, cell-based.
The next data set has as its system HepG2. Put plainly: Cytotoxicity against human HepG2 cells. Format: functional, cell-based.
The subject of data set [1] is Mus musculus. Nature of the data set: Gastroprotective activity in mouse assessed as reduction in HCl/EtOH-induced gastric lesions at 10 mg/kg. Format: functional. The following applies: Stomach.
For data set [2], the system named is Rattus norvegicus. Nature of the data set: Antiulcer activity in rat assessed as inhibition of pepsin activity at 100 mg/kg. Format: functional. The following applies: Rattus norvegicus.
A further data set deals with Escherichia coli. Put plainly: Antimicrobial activity against Escherichia coli. The format is functional.
The next data set deals with Pseudomonas fluorescens. Put plainly: Antimicrobial activity against Pseudomonas fluorescens. The format is functional.
In data set [3] the target is Fibroblast growth factor receptor 1 (Homo sapiens, UniProt P11362). Put plainly: Inhibition of FGFR1 (unknown origin).
Sequence of Fibroblast growth factor receptor 1 (P11362 whole entry): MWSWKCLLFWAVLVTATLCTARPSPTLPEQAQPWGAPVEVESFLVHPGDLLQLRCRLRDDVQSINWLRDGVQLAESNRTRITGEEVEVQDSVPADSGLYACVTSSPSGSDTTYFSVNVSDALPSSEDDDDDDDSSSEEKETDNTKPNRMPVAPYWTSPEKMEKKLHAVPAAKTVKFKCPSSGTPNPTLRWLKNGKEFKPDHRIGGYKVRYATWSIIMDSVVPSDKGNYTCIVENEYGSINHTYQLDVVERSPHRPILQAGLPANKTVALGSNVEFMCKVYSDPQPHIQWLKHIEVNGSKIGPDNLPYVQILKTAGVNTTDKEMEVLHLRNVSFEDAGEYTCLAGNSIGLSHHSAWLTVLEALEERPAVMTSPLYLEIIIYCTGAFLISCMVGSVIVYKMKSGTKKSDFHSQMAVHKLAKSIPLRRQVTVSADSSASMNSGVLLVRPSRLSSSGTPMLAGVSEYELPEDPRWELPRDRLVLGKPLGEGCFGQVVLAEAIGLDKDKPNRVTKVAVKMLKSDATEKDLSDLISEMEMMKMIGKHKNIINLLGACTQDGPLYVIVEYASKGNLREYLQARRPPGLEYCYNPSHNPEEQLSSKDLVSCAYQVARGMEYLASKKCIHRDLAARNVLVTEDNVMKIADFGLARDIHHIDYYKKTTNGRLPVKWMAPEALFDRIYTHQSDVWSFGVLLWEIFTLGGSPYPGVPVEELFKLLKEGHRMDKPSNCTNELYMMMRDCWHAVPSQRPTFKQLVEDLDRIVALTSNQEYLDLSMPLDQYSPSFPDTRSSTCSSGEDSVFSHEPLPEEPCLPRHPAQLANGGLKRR
Data set [4] is described as follows: Cytotoxicity against human PC3 cells. The settings on record: PC-3. Format: functional, cell-based.
Data set [5] in a line: Cytotoxicity against human Hey-1B cells. The format is functional, cell-based.
Data set [6] is described as follows: Cytotoxicity against human HL60 cells. Format: functional, cell-based. The settings on record: HL-60.
For another data set, the system named is superoxide anion radical. Nature of the data set: Antioxidant activity assessed as superoxide anion radical scavenging activity relative to untreated control.
Data set [7] is described as follows: Antioxidant activity assessed as DPPH radical scavenging activity. The format is physicochemical.
Data set [8] can be described thus: Cytotoxicity against human SKMES1 cells. The format is functional, cell-based. The settings on record: SK-MES-1.
Another data set relates to Fusarium oxysporum. Nature of the data set: Antimicrobial activity against Fusarium oxysporum assessed as inhibition of microbial growth at 50 ug/ml. Format: functional.
In another data set the test system is Staphylococcus aureus. Put plainly: Antimicrobial activity against methicillin-resistant Staphylococcus aureus. Format: functional.
The subject of the next data set is Enterococcus. Put plainly: Antimicrobial activity against Vancomycin-resistant Enterococcus. Format: functional.
Data set [9] deals with Mus musculus. Put plainly: Gastroprotective activity in mouse assessed as reduction in HCl/EtOH-induced gastric lesions at 100 mg/kg. Format: functional. The settings on record: Stomach.
The test system of data set [10] is Rattus norvegicus. Put plainly: Antiulcer activity in rat assessed as inhibition of secretion at 30 mg/kg, ip. Format: functional. The settings on record: route intraperitoneal.
The next data set has as its system EJ. Nature of the data set: Cytotoxicity against human EJ cells. The format is functional, cell-based. The following applies: pooled result: one value given for 4 cell lines, strains, targets or settings.

On to `COc1ccc(/C=N/C[C@]2(C)CCC[C@]3(C)c4ccc(C(C)C)cc4CC[C@@H]23)c(O)c1`, for which the IC50 with A549 stood at 750 nM; with C6, 810 nM; in the data set with MCF7, 10600 nM; with SMMC-7721, 6650 nM.
In the case of `CC(C)c1ccc2c(c1)CC[C@H]1[C@](C)(C/N=C/c3cccc(F)c3)CCC[C@]21C`, the IC50 in the data set on A549 came out at 750 nM; in the data set on C6 it was 810 nM; in the data set with MCF7 it was 10600 nM; in the data set with SMMC-7721, 6650 nM.
Consider `CC(C)c1ccc2c(c1)CC[C@H]1[C@](C)(NC(N)=O)CCC[C@]21C`, for which the IC50 in the data set with HepG2 came to 1.21 µg/mL (≈ 3.85 µM); with SMMC-7721, 8800 nM.
On to `COC(=O)[C@]12CCCC(C)(C)[C@@H]1CCc1cc(C(C)C)c(OC(=O)c3ccccc3)c(OC(=O)c3ccccc3)c12`, for which, in the data set on Mus musculus [1], the inhibition in vivo at 10 mg/kg was determined as 73%.
For the compound `CC(C)c1ccc2c(c1)CC[C@H]1[C@](C)(C/N=C/c3ccc(C(F)(F)F)cc3)CCC[C@]21C`, the IC50 came to 750 nM with A549, 810 nM in the data set with C6, 10600 nM with MCF7 and 6650 nM with SMMC-7721.
As for `CC(C)c1cc2c(cc1S(=O)(=O)O)[C@@]1(C)CCC[C@@](C)(C(=O)O)[C@@H]1CC2`, the inhibition in vivo at 100 mg/kg in the data set with Rattus norvegicus [2] amounted to 92%.
As to `CC(C)c1ccc2c(c1)CC[C@H]1[C@](C)(C(=O)N/N=C/c3ccc(Cl)c([N+](=O)[O-])c3)CCC[C@]21C`, the MIC against Escherichia coli and with Pseudomonas fluorescens was 3.9 µg/mL (≈ 8.09 µM) each time.
For `Cc1c(OCC(F)(F)F)ccnc1C[S+]([O-])c1nc2ccccc2[nH]1` (stereo not drawn) [LANSOPRAZOLE], in the data set on Mus musculus [1], the inhibition in vivo at 10 mg/kg came out at 64%.
`COC(=O)[C@]12CCCC(C)(C)[C@@H]1CCc1cc(C(C)C)c(OC(=O)Cc3cc4ccccc4[nH]3)c(OC(=O)Cc3cc4ccccc4[nH]3)c12`: the inhibition in vivo at 10 mg/kg in the data set with Mus musculus [1] came to 73%.
`CC(C)c1cc2c(cc1[N+](=O)[O-])[C@@]1(C)CCC[C@@](C)(CNC(=O)c3ccccc3)[C@@H]1CC2=O`: half-maximal inhibition in the data set on HepG2 (IC50) required 67.9 µg/mL (≈ 151 µM).
In turn, `CC(C)c1ccc2c(c1)CC[C@H]1[C@](C)(C/N=C/c3c(O)ccc4ccccc34)CCC[C@]21C` registered an IC50 in data set [3] of 1200 nM.
In the case of `CC(C)c1cc2c(cc1[N+](=O)[O-])[C@@]1(C)CCC[C@@](C)(CNC(=O)c3ccccc3Cl)[C@@H]1CC2`, the IC50 was found to be 5.7 µg/mL in data set [4] and 11.3 µg/mL (≈ 24.1 µM) in data set [5].
As for `COc1ccc(/C=N/C[C@]2(C)CCC[C@]3(C)c4ccc(C(C)C)cc4CC[C@@H]23)cc1`, the IC50 in the data set on A549 stood at 750 nM; in the data set on C6, 810 nM; in the data set on MCF7, 10600 nM; in the data set on SMMC-7721, 6650 nM.
For the compound `COC(=O)[C@H](CO)NC(=O)[C@]1(C)CCC[C@]2(C)c3ccc(C(C)C)cc3CC[C@@H]12`, the IC50 in data set [6] came to 2300 nM.
In the case of `CCCOC(=O)[C@]12CCCC(C)(C)[C@@H]1CCc1cc(C(C)C)c(OC)c(OC(=O)CCC)c12`, the inhibition in vivo at 10 mg/kg with Mus musculus [1] was 73%.
With `CC(C)c1ccc2c(c1)C(=O)C[C@H]1[C@](C)(CNC(=O)c3cc(O)c(O)c(O)c3)CCC[C@]21C`, the “inhibition (INH)” value in the data set with superoxide anion radical was found to be 38.18%. In [7], the IC50 was determined as 2 µg/mL (≈ 4.43 µM).
Consider `CCC(C)[C@H](NC(=O)[C@]1(C)CCC[C@]2(C)c3ccc(C(C)C)cc3CC[C@@H]12)C(=O)OC` (stereo partly drawn), for which, in [6], the IC50 was 2300 nM.
As to `CC(C)c1ccc2c(c1)CC[C@H]1[C@](C)(COC(=O)CCc3cn(-c4ccccc4)nn3)CCC[C@]21C`, the IC50 in [8] was 6100 nM.
Take `COC(=O)C[C@H](NC(=O)[C@]1(C)CCC[C@]2(C)c3ccc(C(C)C)cc3CC[C@@H]12)C(=O)OC`: the half-maximal inhibitory concentration (IC50) in data set [6] stood at 2300 nM.
In the case of `O=C1O[C@H]([C@@H](O)CO)C(O)=C1O` [ASCORBIC ACID], the IC50 in data set [7] was 236 µg/mL (≈ 1340 µM).
For `CC(C)c1ccc2c(c1)CC[C@H]1[C@](C)(c3nnc4s/c(=C\c5ccccc5)c(=O)n34)CCC[C@]21C`, the inhibition at 50 µg/mL with Fusarium oxysporum worked out at 51.9%.
Turning to `CC(C)c1cc2c(c(O)c1O)[C@@]1(C)CCCC(C)(C)C1=CC2=O` [SALVINOLONE], the MIC against Staphylococcus aureus and in the data set on Enterococcus was 4 µg/mL (≈ 12.7 µM) throughout.
For the compound `CC(C)c1ccc2c(c1)CC[C@H]1[C@](C)(C(=O)O)CCC[C@]21C` [DEHYDROABIETIC ACID], the inhibition in vivo at 100 mg/kg in the data set on Mus musculus [9] is 59%. Besides, in the data set on Rattus norvegicus [10], the inhibition in vivo at 30 mg/kg was 22%.
For the compound `C=CC1CN2CCC1CC2C(NC(=S)NC[C@]1(C)CCC[C@]2(C)c3ccc(C(C)C)cc3CC[C@@H]12)c1ccnc2ccc(OC)cc12` (stereo partly drawn), the IC50 (with EJ; in data set [4]) was 2070 nM each time.

These data come from ChEMBL document CHEMBL3351221, “Synthetic derivatives of aromatic abietane diterpenoids and their biological activities” (Eur J Med Chem, 2014).
